The numbers were not newly measured in patent US20200222348A1, “BIMODAL MODIFIED RELEASE COMPOSITIONS FOR CANCER TREATMENT” (MUSLI THYROPEUTICS LTD., priority 2017, published 2020), which cites them from elsewhere.

For this data set the following is noted: stated as general knowledge.

As to `N[C@@H](Cc1cc(I)c(Oc2ccc(O)c(I)c2)c(I)c1)C(=O)O` [Example T3, triiodothyronine], where the note is “T3, short biological half-life”, the biological half-life was 48-60 hours. In addition, the Tmax in serum result (T3 in serum) is on record as “about 4 hrs”.
